Experimental findings from patent US20230365537A1, “POLO LIKE KINASE 4 INHIBITORS” (ORIC Pharmaceuticals, Inc., priority 2021, published 2023) are described below.

Experiment [1] deals with human recombinant Aurora A (Homo sapiens (Human), UniProt O14965). Briefly: Aurora A Kinase Biochemical Assay (ADP-Glo). Conditions: ratio of Aurora A IC50 to PLK4 IC50 (selectivity).
The target of a further experiment is human recombinant PLK4 (Homo sapiens (Human), UniProt O00444). The experiment can be described thus: PLK4 Biochemical Assay (ADP-Glo). Conditions: 0.5 nM PLK4, 8.0 µM ATP, 4.7 µM MBP, 6 hours at RT. In outline: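 Luminescent ADP-Glo detection quantified ADP production, with ATP depletion for 40 min and detection for 30 min at room temperature. Compound and PLK4 (1.0 nM stock addition) were preincubated 15 min in HEPES pH 7.5 buffer containing MgCl2, EGTA, DTT, Brij-35 and BSA. IC50 values were obtained by four-parameter nonlinear regression.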
Chain of human recombinant PLK4 (O00444 whole entry): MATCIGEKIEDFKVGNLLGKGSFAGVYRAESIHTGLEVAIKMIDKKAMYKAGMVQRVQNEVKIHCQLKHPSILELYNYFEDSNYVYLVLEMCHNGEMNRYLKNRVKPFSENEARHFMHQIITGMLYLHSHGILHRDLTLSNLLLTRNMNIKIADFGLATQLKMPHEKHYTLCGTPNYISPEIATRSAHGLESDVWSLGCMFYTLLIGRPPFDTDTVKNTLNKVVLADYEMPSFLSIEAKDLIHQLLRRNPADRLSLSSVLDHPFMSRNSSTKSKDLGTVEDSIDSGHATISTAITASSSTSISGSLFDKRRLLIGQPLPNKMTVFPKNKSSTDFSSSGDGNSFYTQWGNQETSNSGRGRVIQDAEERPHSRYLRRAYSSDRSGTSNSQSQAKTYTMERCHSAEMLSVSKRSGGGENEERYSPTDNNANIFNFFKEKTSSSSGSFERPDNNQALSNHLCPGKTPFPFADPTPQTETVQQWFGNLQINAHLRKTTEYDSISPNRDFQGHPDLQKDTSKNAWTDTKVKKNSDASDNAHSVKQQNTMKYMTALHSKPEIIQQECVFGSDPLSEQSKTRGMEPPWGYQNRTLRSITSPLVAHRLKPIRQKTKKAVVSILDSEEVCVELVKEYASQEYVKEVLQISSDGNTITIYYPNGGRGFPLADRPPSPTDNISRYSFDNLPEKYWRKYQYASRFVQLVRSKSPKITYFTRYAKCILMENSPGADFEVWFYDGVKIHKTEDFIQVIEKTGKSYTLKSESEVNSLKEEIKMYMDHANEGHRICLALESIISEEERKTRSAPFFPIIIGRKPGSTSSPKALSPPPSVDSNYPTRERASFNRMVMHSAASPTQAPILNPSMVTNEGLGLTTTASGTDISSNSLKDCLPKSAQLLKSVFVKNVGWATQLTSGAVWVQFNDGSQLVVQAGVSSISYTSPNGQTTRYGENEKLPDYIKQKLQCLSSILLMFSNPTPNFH
A general note: ADP-Glo first removes unused ATP, then detects ADP through luciferase.

In experiment [2] the target is human recombinant Aurora B (Homo sapiens (Human), UniProt Q96GD4). Briefly: Aurora B Kinase Biochemical Assay (ADP-Glo). Conditions: ratio of Aurora B IC50 to PLK4 IC50 (selectivity). In outline: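 IC50 derived by four-parameter nonlinear fit of ADP-Glo luminescence (ADP produced). Compound was preincubated 15 min at RT with 20 nM recombinant human Aurora B, in 50 mM HEPES pH 7.5, 10 mM MgCl2, 1 mM EGTA, 1 mM DTT, 0.01% Brij-35/BSA.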
Chain of human recombinant Aurora B (Q96GD4 whole entry): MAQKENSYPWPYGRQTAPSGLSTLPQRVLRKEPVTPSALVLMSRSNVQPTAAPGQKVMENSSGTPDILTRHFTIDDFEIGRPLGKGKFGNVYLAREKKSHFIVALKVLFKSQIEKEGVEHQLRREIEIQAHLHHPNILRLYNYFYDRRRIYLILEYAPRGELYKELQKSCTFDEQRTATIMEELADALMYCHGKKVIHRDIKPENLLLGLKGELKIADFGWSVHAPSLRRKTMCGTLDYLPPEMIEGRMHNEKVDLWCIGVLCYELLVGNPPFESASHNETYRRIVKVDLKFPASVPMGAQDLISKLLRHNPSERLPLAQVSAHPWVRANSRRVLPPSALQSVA

Chain of human recombinant Aurora A (O14965 whole entry): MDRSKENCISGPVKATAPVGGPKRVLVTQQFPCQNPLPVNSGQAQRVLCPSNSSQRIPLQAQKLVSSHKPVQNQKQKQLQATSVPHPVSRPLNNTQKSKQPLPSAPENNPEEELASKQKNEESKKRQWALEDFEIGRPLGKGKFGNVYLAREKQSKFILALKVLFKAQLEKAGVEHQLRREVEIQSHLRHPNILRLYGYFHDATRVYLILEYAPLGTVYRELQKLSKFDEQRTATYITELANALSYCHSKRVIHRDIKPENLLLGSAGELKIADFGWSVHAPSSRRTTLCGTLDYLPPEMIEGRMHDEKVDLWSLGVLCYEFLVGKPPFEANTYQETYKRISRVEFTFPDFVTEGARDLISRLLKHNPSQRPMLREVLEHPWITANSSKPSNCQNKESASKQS

As for `COc1ccc2c(c1)[C@]1(C[C@H]1c1ccc3c(Nc4nnccc4OC)n[nH]c3c1)C(=O)N2` [Example 90, (1R,2S)-5′-methoxy-2-{3-[(4-methozypyridazin-3-yl)amino]-1H-indazol-6-yl}spiro[cyclopropane-1,3′-indol]-2′(1′H)-one], the “[Aurora A IC50 (nM)]/[PLK4 IC50 (nM)]” value in experiment [1] is reported as 1505.334. For the same compound, on human recombinant PLK4, the IC50 worked out at 17.8 nM. Moreover, the “[Aurora B IC50 (nM)]/[PLK4 IC50 (nM)]” value in experiment [2] turned out to be 44.33.

Turning to `CCn1nc(C2CC2)cc1Nc1n[nH]c2cc([C@@H]3C[C@@]34C(=O)Nc3ccc(OC)cc34)ccc12` [Example 92, (1R,2S)-2-{3-[(3-cyclopropyl-1-ethyl-1H-pyrazol-5-yl)amino]-1H-indazol-6-yl}-5′-methoxyspiro[cyclopropane-1,3′-indol]-2′(1′H)-one], the “[Aurora A IC50 (nM)]/[PLK4 IC50 (nM)]” value in experiment [1] was determined as 132.8355. At human recombinant PLK4, the IC50 turned out to be 8.84 nM. In addition, the “[Aurora B IC50 (nM)]/[PLK4 IC50 (nM)]” value in experiment [2] amounted to 76.36.

For `COc1ccc2c(c1)[C@]1(C[C@H]1c1ccc3c(Nc4nc(CC(C)(C)O)nc(N5CCOCC5)c4OC)n[nH]c3c1)C(=O)N2` [Example 93, (1R,2S)-2-(3-{[2-(2-hydroxy-2-methylpropyl)-5-methoxy-6-(morpholin-4-yl)pyrimidin-4-yl]amino}-1H-indazol-6-yl)-5′-methoxyspiro[cyclopropane-1,3′-indol]-2′(1′H)-one], in experiment [1], the “[Aurora A IC50 (nM)]/[PLK4 IC50 (nM)]” value amounted to 1733.361. Moreover, on human recombinant PLK4, the IC50 amounted to 24.3 nM. Also, the “[Aurora B IC50 (nM)]/[PLK4 IC50 (nM)]” value in experiment [2] worked out at 1055.053.

With `COc1ccc2c(c1)[C@]1(C[C@H]1c1ccc3c(Nc4cc(N5CCOCC5)nc(C(C)C)n4)n[nH]c3c1)C(=O)N2` [Example 102, (1R,2S)-5′-methoxy-2-(3-{[6-(morpholin-4-yl)-2-(propan-2-yl)pyrimidin-4-yl]amino}-1H-indazol-6-yl)spiro[cyclopropane-l,3′-indol]-2′(1′H)-one], the “[Aurora A IC50 (nM)]/[PLK4 IC50 (nM)]” value in experiment [1] stood at 114.7355. Besides, at human recombinant PLK4, the IC50 stood at 6.16 nM. Also, the “[Aurora B IC50 (nM)]/[PLK4 IC50 (nM)]” value in experiment [2] came out at 74.7.

On to `COc1ccc2c(c1)[C@]1(C[C@H]1c1ccc3c(Nc4nc(N5CCOCC5)ncc4Cl)n[nH]c3c1)C(=O)N2` [Example 103, (1R,2S)-2-(3-{[5-chloro-2-(morpholin-4-yl)pyrimidin-4-yl]amino}-1H-indazol-6-yl)-5′-methozyspiro[cyclopropano-1,3′-indol]-2′(1′H)-one], for which the “[Aurora A IC50 (nM)]/[PLK4 IC50 (nM)]” value in experiment [1] is 416.6667. Also, the IC50 at human recombinant PLK4 is 2.8 nM. Further, the “[Aurora B IC50 (nM)]/[PLK4 IC50 (nM)]” value in experiment [2] was 977.1102.

Turning to `COc1ccc2c(c1)[C@]1(C[C@H]1c1ccc3c(Nc4nc(C5CNC5)cnc4OC)n[nH]c3c1)C(=O)N2` [Example 110, (1R,2S)-2-(3-{[6-(azetidin-3-yl)-3-methoxypyrazin-2-yl]amino}-1H-indazol-6-yl)-5′-methoxyspiro[cyclopropane-1,3′-indol]-2′(1′H)-one], in experiment [1], the “[Aurora A IC50 (nM)]/[PLK4 IC50 (nM)]” value came out at 679.6315. Moreover, on human recombinant PLK4, the IC50 amounted to 3.91 nM. In experiment [2], the “[Aurora B IC50 (nM)]/[PLK4 IC50 (nM)]” value amounted to 232.1904.

In the case of `COc1ccc2c(c1)[C@]1(C[C@H]1c1ccc3c(Nc4cc(N5CC(O)C5)nc(C(C)C)n4)n[nH]c3c1)C(=O)N2` [Example 111, (1R,2S)-2-(3-{[6-(3-hydroxyazetidin-1-yi)-2-(propan-2,yl)pyrimidin-4-yl]amino}-1H-indazol-6-yl)-5′-inethoxyspiro[cyclopropane-1,3′-indol]-2′(1′H)-one], the “[Aurora A IC50 (nM)]/[PLK4 IC50 (nM)]” value in experiment [1] stood at 234.7231. Besides, at human recombinant PLK4, the IC50 came to 1.53 nM. The “[Aurora B IC50 (nM)]/[PLK4 IC50 (nM)]” value in experiment [2] is 144.4951.

As for `COc1ccc2c(c1)[C@]1(C[C@H]1c1ccc3c(Nc4cc(C)nn4CC(F)F)n[nH]c3c1)C(=O)N2` [Example 112, (1R,2S)-2-(3-{[1-(2,2-difluoroethyl)-3-methyl-1H-pyrazol-5-yl]amino}-1H-indazol-6-yl)-5′-methoxyspiro[cyclopropane-1,3′-indol]-2′(1′H)-one], in experiment [1], the “[Aurora A IC50 (nM)]/[PLK4 IC50 (nM)]” value turned out to be 197.5105. Further, the IC50 at human recombinant PLK4 stood at 23.7 nM. Besides, the “[Aurora B IC50 (nM)]/[PLK4 IC50 (nM)]” value in experiment [2] is 121.8987.

With `COc1cnc(C)nc1Nc1n[nH]c2cc([C@@H]3C[C@@]34C(=O)N(C)c3ccccc34)ccc12` [Example 122, (1R,2S)-2-{3-[(5-methoxy-2-methylpyrimidin-4-yl)amino]-1H-indezol-6-yl}-1′-methylspiro[cyclopropane-1,3′-indol]-2′(1′H)-one], the “[Aurora A IC50 (nM)]/[PLK4 IC50 (nM)]” value in experiment [1] was 11.1709. For the same compound, the IC50 on human recombinant PLK4 is 73.1 nM. Further, the “[Aurora B IC50 (nM)]/[PLK4 IC50 (nM)]” value in experiment [2] amounted to 11.87.

As to `COc1cnc(C)nc1Nc1n[nH]c2cc([C@@H]3C[C@@]34C(=O)Nc3ccccc34)ccc12` [Example 124, (1R,2S)-2-{3-[(5-methoxy-2-methylpyrimidin-4-yl)amino]-1H-indazol-6-yl}spiro[cyclopropane-1,3′-indol]-2′(1′H)-one], the “[Aurora A IC50 (nM)]/[PLK4 IC50 (nM)]” value in experiment [1] came out at 38.03. Also, the IC50 on human recombinant PLK4 worked out at 13.6 nM. Further, the “[Aurora B IC50 (nM)]/[PLK4 IC50 (nM)]” value in experiment [2] is 35.9.

For `COc1cnc(C)nc1Nc1n[nH]c2cc([C@@H]3C[C@]34C(=O)Nc3ccc(C)cc34)ccc12` [Example 127, (1S,2S)-2-{3-[(5-methoxy-2-methylpyrimidin-4-yl)amino]-1H-indazol-6-yl}-5′-methylspiro[cyclopropane-1,3′-indol]-2′(1′H)-one], the “[Aurora A IC50 (nM)]/[PLK4 IC50 (nM)]” value in experiment [1] is 22.77. Besides, at human recombinant PLK4, the IC50 was determined as 2200 nM. The “[Aurora B IC50 (nM)]/[PLK4 IC50 (nM)]” value in experiment [2] was determined as 22.7686.

For `COc1cnc(C)nc1Nc1n[nH]c2cc([C@@H]3C[C@@]34C(=O)Nc3cccc(F)c34)ccc12` [Example 129, (1R,2S)-4′-fluoro-2-{3-[(5-methoxy-2-methylpyrimidin-4-yl)amino]-1H-indazol-6-yl}spiro[cyclopropane-1,3′-indol]-2′(1′H)-one], in experiment [1], the “[Aurora A IC50 (nM)]/[PLK4 IC50 (nM)]” value was 18.1054. Further, on human recombinant PLK4, the concentration for half-maximal inhibition (IC50) is 34.5 nM. The “[Aurora B IC50 (nM)]/[PLK4 IC50 (nM)]” value in experiment [2] is listed as 17.1349.

Turning to `COc1cnc(C)nc1Nc1n[nH]c2cc([C@@H]3C[C@]34C(=O)Nc3cccc(F)c34)ccc12` [Example 130, (1S,2S)-4′-fluoro-2-{3-[(5-methoxy-2-methylpyrimidin-4-yl)amino]-1H-indazol-6-yl}spiro[cyclopropane-1,3′-indol]-2′(1′H)-one], the “[Aurora A IC50 (nM)]/[PLK4 IC50 (nM)]” value in experiment [1] is reported as 58.4811. For the same compound, at human recombinant PLK4, the IC50 amounted to 603 nM. The “[Aurora B IC50 (nM)]/[PLK4 IC50 (nM)]” value in experiment [2] was 60.1890.

On to `COc1cnc(C)nc1Nc1n[nH]c2cc([C@@H]3C[C@@]34C(=O)Nc3cc(F)ccc34)ccc12` [Example 131, (1R,2S)-6′-fluoro-2-{3-[(5-methoxy-2-methylpyrimidin-4-yl)amino]-1H-indazol-6-yl}spiro[cyclopropane-1,3′-indol]-2′(1′H)-one], for which, in experiment [1], the “[Aurora A IC50 (nM)]/[PLK4 IC50 (nM)]” value stood at 105.7084. For the same compound, the IC50 on human recombinant PLK4 worked out at 53.8 nM. The “[Aurora B IC50 (nM)]/[PLK4 IC50 (nM)]” value in experiment [2] stood at 40.8516.

In the case of `Cc1ncc(OC(F)F)c(Nc2n[nH]c3cc([C@@H]4C[C@@]45C(=O)Nc4ccc(F)cc45)ccc23)n1` [Example 135, (1R,2S)-2-(3-{[5-(difluoromethoxy)-2-methylpyrimidin-4-yl]amino}-1H-indazol-6-yl)-5′-fluorospiro[cyclopropane-1,3′-indol]-2′(1′H)-one], the “[Aurora A IC50 (nM)]/[PLK4 IC50 (nM)]” value in experiment [1] is given as 28.3312. Further, the IC50 at human recombinant PLK4 was 70.8 nM. Also, in experiment [2], the “[Aurora B IC50 (nM)]/[PLK4 IC50 (nM)]” value came out at 62.6112.

As for `COc1ccc2c(c1)[C@]1(C[C@H]1c1ccc3c(Nc4nc(C)ncc4OC(C)C)n[nH]c3c1)C(=O)N2` [Example 136, (1R,2S)-5′-methoxy-2-[3-({2-methyl-5-[(propan-2-yl)oxy]pyrimidin-4-yl}amino)-1H-indazol-6-yl]spiro[cyclopropane-1,3′-indol]-2′(1′H)-one], the “[Aurora A IC50 (nM)]/[PLK4 IC50 (nM)]” value in experiment [1] turned out to be 2573.3401. Further, the IC50 at human recombinant PLK4 was 19.4 nM. Moreover, the “[Aurora B IC50 (nM)]/[PLK4 IC50 (nM)]” value in experiment [2] came to 979.4132.

For the compound `COc1cnc(C)nc1Nc1n[nH]c2cc([C@@H]3C[C@@]34C(=O)Nc3ccc(C(F)(F)F)cc34)ccc12` [Example 137, (1R,2S)-2-{3-[(5-methoxy-2-methylpyrimidin-4-yl)amino]-1H-indazol-6-yl}-5′-(trifluoromethyl)spiro[cyclopropane-1,3′-indol]-2′(1′H)-one], in experiment [1], the “[Aurora A IC50 (nM)]/[PLK4 IC50 (nM)]” value was found to be 62. Further, the IC50 on human recombinant PLK4 was 97.2 nM. For the same compound, the “[Aurora B IC50 (nM)]/[PLK4 IC50 (nM)]” value in experiment [2] was 72.

Regarding `COc1cnc(C)nc1Nc1n[nH]c2cc([C@@H]3C[C@@]34C(=O)Nc3ccc(OC(F)(F)F)cc34)ccc12` [Example 138, (1R,2S)-2-{3-[(5-methoxy-2-methylpyrimidin-4yl)amino]-1H-indazol-6-yl}-5′-(trifluoromethoxy)spiro[cyclopropane-1,3′-indol]-2′(1′H)-one], in experiment [1], the “[Aurora A IC50 (nM)]/[PLK4 IC50 (nM)]” value was determined as 70. For the same compound, the IC50 at human recombinant PLK4 amounted to 27.3 nM. For the same compound, the “[Aurora B IC50 (nM)]/[PLK4 IC50 (nM)]” value in experiment [2] is listed as 36.

For the compound `COc1cnc(C)nc1Nc1n[nH]c2cc([C@@H]3C[C@]34C(=O)Nc3ccc(OC(F)(F)F)cc34)ccc12` [Example 139, (1S,2S)-2-{3-[(5-methoxy-2-methylpyrimidin-4-yl)amino]-1H-indazol-6-yl}-5′-(trifluoromethoxy)spiro[cyclopropane-1,3′-indol]-2′(1′H)-one], in experiment [1], the “[Aurora A IC50 (nM)]/[PLK4 IC50 (nM)]” value worked out at 7.4. Also, the IC50 at human recombinant PLK4 turned out to be 3180 nM. In experiment [2], the “[Aurora B IC50 (nM)]/[PLK4 IC50 (nM)]” value was 9.6.

What is called IC50 is the point on the concentration scale where inhibition reaches its midpoint.
